# “And” between values parts separate entries of the source, which are not always exact repeats. Equal values may be shown once. “Also recorded” adds a separate entry of the source. Read-outs that look alike come from different tables or passages of the source.
# Columns and labels:
# [1] = test system: CEM cells; assay: Cytotoxicity, ID50 and ID90 by trypan blue staining; type: cell-based; details: for IC90 / IC50: Homo sapiens, CCRF-CEM; for IC90: 48 h, read-out: ID90 (the source's name); for IC50: NT = Non-toxic to CEM cells
# Description: CEM cells, a human T-cell lymphoblastoid leukemia cell line (American Type Culture Collection, Rockville, Md.), were cultured in suspension (Iscove's Dulbecco's Medium) supplemented with 10% heat inactivated fetal bovine serum (FBS), penicillin (250 μ/ml) and streptomycin (250 μl/ml). Cells were incubated at 37° C. in 5% C02 and only those cells in exponential growth were used.
# CEM cells were seeded into 96-well microplates (Falcon, Oxnard, Calif.) at 10^5 cell per well, then treated with 0-10 μg/ml of the candidate compounds for 48 h at 37° C. yielding a total volume of 250 μ/well. Cell viability was assessed by trypan blue staining. ID50 and ID90 were defined as the concentration killing 50% or 90% of the cells in comparison with untreated controls, and calculated by non-linear regression analysis.
# Cells in suspension culture were seeded into 96-well microplates (Falcon, Oxnard, Calif.) at 10^5 cell per well, followed, by treatment with 0-10 μg/ml of the candidate compounds for 48 hr at 37° C. with total volume of 250 μl per well. Cell viability was assessed by trypan blue exclusion.
# The ID50 and ID90 was determined in duplicate in every set of experiments, and each experiment was repeated 3 times under identical conditions. ID50 and ID90 were defined as drug concentrations that induced 50% or 90% cellular death in comparison with untreated controls and calculated by non-linear regression analysis. […]
# [2] = test system: CEM cells; assay: Cell cycle analysis by flow cytometry; type: cell-based, human; details: for Apoptosis (%) / G0/G1 (%) / G2/M (%) / S (%) / Mitotic Arrest: 0.025 μg/ml; for shift of the cell population from G0/G1 (2N) to G2/M (4N), DNA profile: 8 h treatment, compound 6 2.5 μg/ml, compound 8 0.025 μg/ml, compound 9 0.005 μg/ml; for Mitotic Arrest: cell cycle analyses
# [3] = test system: CEM cells; assay: DNA fragmentation by electrophoresis (apoptosis); type: cell-based, human; details: for apoptosis, DNA fragmentation on gel electrophoresis: 48 hours, compound 8 0.025 μg/ml, compound 9 0.005 μg/ml, fluorine compound 5.0 μg/ml, chlorine compound 0.75 μg/ml; for Apoptosis: 0.025 μg/ml, DNA electrophoresis
# Description: DNA fragmentation was determined by a method reported previously (reference 3). Briefly, cells were treated in 1 ml lysis buffer (0.01M Tris. HCL pH 8.0, 0.01M NaCl, 0.01M EDTA pH 8.0 and 5% sodium dodecyl sulfate) containing 1 μg/ml protease K for 1 h at 50° C. The resulting products were extracted with phenol and chloroform:isoamylalcohol (24:1, v/v), and precipitated with ethanol followed by centrifugation at 7800 g (Sorvall RC-5B Du Pont, Newtown, Conn.). The ethanol was removed and the dry pellets of nucleic acid were resuspended in 10 mM Tris-HCL/1 mM EDTA solution. When DNA content was determined spectrophotometrically all samples had A260/A280 ratio≧2. The DNA samples were then treated with RNase (Sigma, St. Louis, Mo.) at a final concentration of 0.1 μg/μl for 20 min at 37° C. before gel loading. Approximately 4 μg size DNA aliquots were loaded onto horizontal agarose gel (1.5%) prepared with 1% ethidium bromide. Electrophoresis was performed at 75 volts for 2 h and the DNA patterns were visualized with UV light.
# […] After incubation, cells were washed twice in PBS. Cell pellets were resuspended in drug-free medium and incubated for 48 hr at 37° C. Cell viability, morphology, mitotic spindles, cell cycle distribution and apoptosis were determined 24 hr and 48 hr post pulse exposure.
# Soluble DNA from cells was extracted by the method reported previously (14). Briefly, after washing with PBS, cells were treated in 1 ml lysis buffer (0.01 M Tris.HCL pH 8.0, 0.01 M NaCl, 0.01M EDTA pH 8.0 and 5% sodium dodecyl sulfate) containing 1 μg/ml proteinase K for 1 hr at 50° C. The resulting products were extracted with phenol and chloroform:isoamylalcohol (24:1, v/v), and precipitated with ethanol followed by centrifugation at 7800 g (Sorvall RC-5B Du Pont, Newtown, Conn.). The ethanol was removed and the dry pellet of nucleic acid was resuspended in 10 mM Tris-HCL/1 mM EDTA solution. DNA content was determined spectrophotometrically by measuring absorption at 260 nm (A260). All samples, had A260/A280≧2. The DNA samples were then treated with RNase (Sigma, St. Louis, Mo.) at a final concentration of 0.1 μg/l for 20 min at 37° C. before gel loading. The DNA sample (4 μg) was analyzed in 1.5% horizontal agarose gel prepared with 1% ethidium bromide. Electrophoresis was performed at 75 volts for 2 hours and the DNA migration was visualized under UV light.
# [4] = CEM cells, concentration killing 90% of the cells
# [5] = Continuous Exposure (24 hr; 48 hr in footnote)
structure (smiles),measurement,setting,value
"NC(=O)NC(=O)c1cccc(NC(=O)CBr)c1 [Compound 8, 3-Bromoacetoamido, benzoylurea]",IC90,[1]; [4],0.025 µg/mL and 82 nM
same,IC90,"[1]; CEM, Human T-cell Leukemia, 48 hr",0.02 ± 0.003 µg/mL
same,IC50,"[1]; CEM leukemic cells, 48 hr",40 nM
same,ID50 of non-malignant cells relative to leukemic and lymphoma cell lines (times),"[1]; non-malignant cells vs leukemia or lymphoma cell lines, listed as 3-BAABU",60-150 times
same,Apoptosis (%),[2]; 1 hour of treatment,2%
same,G0/G1 (%),[2]; 1 hour of treatment,48%
same,G2/M (%),[2]; 1 hour of treatment,21%
same,S (%),[2]; 1 hour of treatment,29%
same,Apoptosis (%),[2]; 2 hours of treatment,1%
same,G0/G1 (%),[2]; 2 hours of treatment,35%
same,G2/M (%),[2]; 2 hours of treatment,22%
same,S (%),[2]; 2 hours of treatment,42%
same,Apoptosis (%),[2]; 4 hours of treatment,4%
same,G0/G1 (%),[2]; 4 hours of treatment,28%
same,G2/M (%),[2]; 4 hours of treatment,29%
same,S (%),[2]; 4 hours of treatment,39%
same,Apoptosis (%),[2]; 8 hours of treatment,5%
same,G0/G1 (%),[2]; 8 hours of treatment,16%
same,G2/M (%),[2]; 8 hours of treatment,44%
same,S (%),[2]; 8 hours of treatment,35%
same,Apoptosis (%),[2]; 12 hours of treatment,7%
same,G0/G1 (%),[2]; 12 hours of treatment,4%
same,G2/M (%),[2]; 12 hours of treatment,60%
same,S (%),[2]; 12 hours of treatment,29%
same,Apoptosis (%),[2]; 24 hours of treatment,18%
same,G0/G1 (%),[2]; 24 hours of treatment,2%
same,G2/M (%),[2]; 24 hours of treatment,70%
same,S (%),[2]; 24 hours of treatment,10%
same,Apoptosis (%),[2]; 48 hours of treatment,33%
same,G0/G1 (%),[2]; 48 hours of treatment,1%
same,G2/M (%),[2]; 48 hours of treatment,61%
same,S (%),[2]; 48 hours of treatment,5%
same,"shift of the cell population from G0/G1 (2N) to G2/M (4N), DNA profile",[2],major shift
same,Mitotic Arrest,[2]; [5],++++ (++++: >75% cells were affected)
same,Mitotic Arrest,[2]; Pulse Exposure (1 hr),++++ (++++: >75% cells were affected)
same,"apoptosis, DNA fragmentation on gel electrophoresis",[3],180-200 bp multiple-unit ladder pattern
same,Apoptosis,[3]; [5],++++ (++++: >75% cells were affected)
same,Apoptosis,[3]; Pulse Exposure (1 hr),++++ (++++: >75% cells were affected)
"NC(=O)NC(=O)c1cccc(NC(=O)CI)c1 [Compound 9, 3-Iodoacetoamido, benzoylurea]",fold more toxic than the bromine compound 8,"[1]; CEM cells, cytotoxicity",5 fold
same,fold more toxic than the chlorine compound 7,"[1]; CEM cells, cytotoxicity",160 fold
same,IC90,[1]; [4],0.005 µg/mL and 14 nM
same,"shift of the cell population from G0/G1 (2N) to G2/M (4N), DNA profile",[2],most significant transformation; also recorded: major shift
same,"apoptosis, DNA fragmentation on gel electrophoresis",[3],180-200 bp multiple-unit ladder pattern
"NC(=O)NC(=O)c1cccc(NC(=O)CCl)c1 [Compound 7, 3-Chloroacetoamido, benzoylurea]",fold increase of ID50 relative to 3-BAABU,[1]; CEM leukemic cells,40 fold
same,IC90,[1]; [4],0.6 µg/mL and 2.3 µM
same,IC50,"[1]; CEM leukemic cells, 48 hr",1950 nM
same,"shift of the cell population from G0/G1 (2N) to G2/M (4N), DNA profile",[2],slight increase
same,"apoptosis, DNA fragmentation on gel electrophoresis",[3],much less DNA fragmentation

# — patent US6590123B2, “Aminobenzoic acid derivatives having anti-tumorigenic activity, methods of making and using the same” (Mount Sinai School of Medicine of New York University, priority 1998, dated 2003)
